Target: T1, Human TREM2 (Homo sapiens, UniProt Q9NZC2)
T1 construct: expressed in transfected cells
Test: Human TREM2 cellular phospho-Syk AlphaLISA assay in HEK293/DAP12+TREM2 stable cell line
Type: cell-based
Settings: HEK293/DAP12+TREM2 cells; for Emax: maximal response relative to the maximal response of the reference agonist, phospho-Syk AlphaLISA; for EC50: phospho-Syk (Tyr525/526) AlphaLISA signal, 30 min incubation
From the text: Human TREM2, in vitro Measurement of Triggering Receptor Expressed on Myeloid Cells 2 activity using cellular phosphorylation of Spleen Tyrosine Kinase (“Syk”) Assay
HEK-293 cells were co-transfected with separate plasmids encoding TREM2 and DAP12 to generate a stable cell line. After antibiotic selection, functional clone pool analysis and two successive limiting dilutions, the final clone “HEK293/DAP12+TREM2” underwent a qPCR analysis and a pharmacological validation.
TREM2 signaling through DAP12 was monitored in the HEK293/DAP12+TREM2 stable cell line by measuring the phosphorylation levels of the Syk kinase using the commercially available AlphaLISA SureFire Ultra p-SYK (Tyr525/526) Assay Kit (PerkinElmer #ALSU-PSYK), based on the Perkin Elmer AlphaScreen/AlphaLISA technology.
Compounds are transferred to the test plate and tested in full dose response, 8 concentrations in quadruplicate data points. Compound serial dilutions were performed at Cybi-Felix instrument in 100% DMSO and the dose response curves were assembled in automated fashion in 384MPT at Hamilton STARlet instrument. All the stock solutions were prepared at 20 mM in 100% DMSO. For compounds testing, the starting concentration was 100 μM, dilution steps 1:6. A different concentration's range was adapted for compound's activity based on the preliminary results. Finally, a 384MPT reformatted for all compounds at 8 concentrations, quadruplicates, was used as “mother to child” process with a CyBi@-Well dispenser in which 1 μL of each compound was moved into a destination plate pre-filled with […] of EMEM cell culture medium (BIOWHITTAKER_cat.BE12-125F), thus obtaining 3× concentrated compounds working solution. In columns 1-2 and 23-24 the control wells were added. In particular, dose response curves of a reference control agonist were included in column 1 and 24 as reference control agonist (Reference control agonists used include Human TREM2 polyclonal Antibody AF1828: R&D Systems; Human TREM2 monoclonal Antibody MAB1828: R&D Systems). The dose response curves were tested starting at 30 μM, dilution step 1:6. Both “source” compound plate and “destination” compound plate were barcoded and a relationship between the two plates was thus generated.
HEK293/DAP12+TREM2 cells were cultured in EMEM medium supplemented with IX Penicillin/Streptomycin (BIOWHITTAKER_cat.DE17-602E), ULTRAGLUTAMINE I 200 mM, 10% Fetal Bovine Serum plus antibiotics referred to as “HEK293 Culture Medium”. The day before the experiment, cells were detached by gentle wash with DPBS, followed by 5 min incubation at 37° C. with Trypsin solution. Cells were then diluted in HEK293 Culture Medium without antibiotics, counted and seeded into 384-well poly-D-Lysine coated microplates black/clear bottom (GREINER 781946) at a density of 10,000 cells/well in 25 μL/well by the use of a MATRIX WellMate dispenser. Plates were placed into a humidified cell culture incubator at 37° C. with 5% CO2 until the experimental day. 20-24 hours after seeding mature medium was removed and replaced with 10 μL/well of EMEM cell medium supplemented with 0.1% Pluronic F-68 non-ionic surfactant (Thermofisher, 24040032), referred to as “Assay Buffer”, using the CyBi@-Well instrument. Then 5 μL/well of Assay Buffer containing 3× concentrated test compounds or the reference control agonist (in 0.5% final DMSO concentration) were added to the cells with the CyBi@-Well instrument. Cell plates were incubated for 30 min into a humidified cell culture incubator at 37° C. with 5% CO2, then the medium was removed by manually discard. 20 μL/well of lysis buffer were dispensed using the CyBi@-Well instrument and plates were incubated for 10 min at room temperature on a plate shaker (350 rpm). Then, 10 μL/well of lysate were transferred to the Alpha plates.
The CyBi@-Well instrument was used to dispense 5 μL/well of AlphaLISA Acceptor Bead Solution in IX Immunoassay buffer (Perkin Elmer AL000F). […]

T1 sequence (Q9NZC2 19-230): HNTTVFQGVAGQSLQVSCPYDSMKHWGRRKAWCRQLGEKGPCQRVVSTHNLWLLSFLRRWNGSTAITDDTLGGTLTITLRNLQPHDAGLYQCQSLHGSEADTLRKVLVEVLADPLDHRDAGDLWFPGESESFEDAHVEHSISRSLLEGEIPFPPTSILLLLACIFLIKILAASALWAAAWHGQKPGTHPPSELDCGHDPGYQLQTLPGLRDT
T1 sequence (O43914 22-113 partner): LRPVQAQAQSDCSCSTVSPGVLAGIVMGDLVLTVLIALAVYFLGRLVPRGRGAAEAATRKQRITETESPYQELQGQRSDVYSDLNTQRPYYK

| Structure (SMILES) | Emax [%] | EC50 [nM] |
| --- | --- | --- |
| Cn1c(C(F)(F)F)nc2c(-c3ccc(C#N)cc3F)nc(N3CC(Oc4cncnc4)C3)nc2c1=O [Example 27, 3-fluoro-4-(7-methyl-8-oxo-2-(3-(pyrimidin-5-yloxy)azetidin-1-yl)-6-(trifluoromethyl)-7,8-dihydropyrimido[5,4-d]pyrimidin-4-yl)benzonitrile] | < 75 | 100 to 1000 |
| Cc1ncc(OC2CN(c3nc(-c4ccc(C#N)cc4F)c4nc(C(F)(F)F)n(C)c(=O)c4n3)C2)cn1 [Example 28, 3-fluoro-4-(7-methyl-2-(3-((2-methylpyrimidin-5-yl)oxy)azetidin-1-yl)-8-oxo-6-(trifluoromethyl)-7,8-dihydropyrimido[5,4-d]pyrimidin-4-yl)benzonitrile] | < 75 | 100 to 1000 |
| Cc1n[nH]c(C)c1OC1CN(c2nc(-c3ccc(C#N)cc3F)c3nc(C(F)(F)F)n(C)c(=O)c3n2)C1 [Example 9, 4-(2-(3-((3,5-dimethyl-1H-pyrazol-4-yl)oxy)azetidin-1-yl)-7-methyl-8-oxo-6-(trifluoromethyl)-7,8-dihydropyrimido[5,4-d]pyrimidin-4-yl)-3-fluorobenzonitrile] | 75 to 110 | 100 to 1000 |
| Cn1c(C(F)(F)F)nc2c(-c3ccc(C#N)cc3F)nc(N3CC(Oc4nncs4)C3)nc2c1=O [Example 2, 4-(2-(3-((1,3,4-thiadiazol-2-yl)oxy)azetidin-1-yl)-7-methyl-8-oxo-6-(trifluoromethyl)-7,8-dihydropyrimido[5,4-d]pyrimidin-4-yl)-3-fluorobenzonitrile] | < 75 | > 1000 |
| Cn1c(C(F)(F)F)nc2c(-c3ccc(C#N)cc3F)nc(N3CC(Oc4ccnc(C#N)c4)C3)nc2c1=O [Example 20, 4-((1-(4-(4-cyano-2-fluorophenyl)-7-methyl-8-oxo-6-(trifluoromethyl)-7,8-dihydropyrimido[5,4-d]pyrimidin-2-yl)azetidin-3-yl)oxy)picolinonitrile] | 75 to 110 | 10 to 100 |
| Cn1c(C(F)(F)F)nc2c(-c3ccc(C#N)nc3)nc(N3CC(Oc4cnn(C5CC5)c4)C3)nc2c1=O [Example 38, 5-(2-(3-((1-cyclopropyl-1H-pyrazol-4-yl)oxy)azetidin-1-yl)-7-methyl-8-oxo-6-(trifluoromethyl)-7,8-dihydropyrimido[5,4-d]pyrimidin-4-yl)picolinonitrile] | 75 to 110 | 100 to 1000 |
| Cn1c(C(F)(F)F)nc2c(-c3ccc(C#N)cc3F)nc(N3CC(Oc4cnn(C5CCC5)c4)C3)nc2c1=O [Example 16, 4-(2-(3-((1-cyclobutyl-1H-pyrazol-4-yl)oxy)azetidin-1-yl)-7-methyl-8-oxo-6-(trifluoromethyl)-7,8-dihydropyrimido[5,4-d]pyrimidin-4-yl)-3-fluorobenzonitrile] | 75 to 110 | 10 to 100 |
| Cn1c(C(F)(F)F)nc2c(-c3ccc(C#N)cc3F)nc(N3CC(Oc4cnnc(Cl)c4)C3)nc2c1=O [Example 26, 4-(2-(3-((6-chloropyridazin-4-yl)oxy)azetidin-1-yl)-7-methyl-8-oxo-6-(trifluoromethyl)-7,8-dihydropyrimido[5,4-d]pyrimidin-4-yl)-3-fluorobenzonitrile] | < 75 | 100 to 1000 |
| Cn1c(C(F)(F)F)nc2c(-c3ccc(C#N)cc3F)nc(N3CC(Oc4cnn(C5CC5)c4)C3)nc2c1=O [Example 1, 4-(2-(3-((1-cyclopropyl-1H-pyrazol-4-yl)oxy)azetidin-1-yl)-7-methyl-8-oxo-6-(trifluoromethyl)-7,8-dihydropyrimido[5,4-d]pyrimidin-4-yl)-3-fluorobenzonitrile] | 75 to 110 | < 10 |
| Cn1c(C(F)(F)F)nc2c(-c3ccc(C#N)cc3F)nc(N3CC(Oc4cnn(C5CC5)c4)C3)cc2c1=O [Example 41, 4-(6-(3-((1-cyclopropyl-1H-pyrazol-4-yl)oxy)azetidin-1-yl)-3-methyl-4-oxo-2-(trifluoromethyl)-3,4-dihydropyrido[3,4-d]pyrimidin-8-yl)-3-fluorobenzonitrile] | 75 to 110 | 100 to 1000 |
| CCc1nnc(OC2CN(c3nc(-c4ccc(C#N)cc4F)c4nc(C(F)(F)F)n(C)c(=O)c4n3)C2)s1 [Example 4, 4-(2-(3-((5-ethyl-1,3,4-thiadiazol-2-yl)oxy)azetidin-1-yl)-7-methyl-8-oxo-6-(trifluoromethyl)-7,8-dihydropyrimido[5,4-d]pyrimidin-4-yl)-3-fluorobenzonitrile] | 75 to 110 | 100 to 1000 |
| Cc1nnc(OC2CN(c3nc(-c4ccc(C#N)cc4F)c4nc(C(F)(F)F)n(C)c(=O)c4n3)C2)s1 [Example 3, 3-fluoro-4-(7-methyl-2-(3-((5-methyl-1,3,4-thiadiazol-2-yl)oxy)azetidin-1-yl)-8-oxo-6-(trifluoromethyl)-7,8-dihydropyrimido[5,4-d]pyrimidin-4-yl)benzonitrile] | < 75 | 100 to 1000 |
| Cn1c(C(F)(F)F)nc2c(-c3ccc(C#N)cc3F)nc(N3CC(Oc4ccnc(C(F)(F)F)c4)C3)nc2c1=O [Example 25, 3-fluoro-4-(7-methyl-8-oxo-6-(trifluoromethyl)-2-(3-((2-(trifluoromethyl)pyridin-4-yl)oxy)azetidin-1-yl)-7,8-dihydropyrimido[5,4-d]pyrimidin-4-yl)benzonitrile] | 75 to 110 | 10 to 100 |
| Cn1c(C(F)(F)F)nc2c(-c3ccc(C#N)cc3F)nc(N3CC(Oc4ccnc(OC(F)F)c4)C3)nc2c1=O [Example 24, 4-(2-(3-((2-(difluoromethoxy)pyridin-4-yl)oxy)azetidin-1-yl)-7-methyl-8-oxo-6-(trifluoromethyl)-7,8-dihydropyrimido[5,4-d]pyrimidin-4-yl)-3-fluorobenzonitrile] | 75 to 110 | 10 to 100 |
| Cn1c(C(F)(F)F)nc2c(-c3ccc(F)cc3F)nc(N3CC(Oc4cnn(C5CC5)c4)C3)nc2c1=O [Example 32, 6-(3-((1-cyclopropyl-1H-pyrazol-4-yl)oxy)azetidin-1-yl)-8-(2,4-difluorophenyl)-3-methyl-2-(trifluoromethyl)pyrimido[5,4-d]pyrimidin-4(3H)-one] | < 75 | 10 to 100 |
| CCCn1cc(OC2CN(c3nc(-c4ccc(C#N)cc4F)c4nc(C(F)(F)F)n(C)c(=O)c4n3)C2)cn1 [Example 12, 3-fluoro-4-(7-methyl-8-oxo-2-(3-((1-propyl-1H-pyrazol-4-yl)oxy)azetidin-1-yl)-6-(trifluoromethyl)-7,8-dihydropyrimido[5,4-d]pyrimidin-4-yl)benzonitrile] | 75 to 110 | 100 to 1000 |
| Cn1c(C(F)(F)F)nc2c(-c3ccc(C#N)cc3F)nc(N3CC(Oc4cnn(C5CCCC5)c4)C3)nc2c1=O [Example 18, 4-(2-(3-((1-cyclopentyl-1H-pyrazol-4-yl)oxy)azetidin-1-yl)-7-methyl-8-oxo-6-(trifluoromethyl)-7,8-dihydropyrimido[5,4-d]pyrimidin-4-yl)-3-fluorobenzonitrile] | 75 to 110 | < 10 |
| Cn1cc(-c2nc(N3CC(Oc4cnn(C5CC5)c4)C3)nc3c(=O)n(C)c(C(F)(F)F)nc23)ccc1=O [Example 39, 6-(3-((1-cyclopropyl-1H-pyrazol-4-yl)oxy)azetidin-1-yl)-3-methyl-8-(1-methyl-6-oxo-1,6-dihydropyridin-3-yl)-2-(trifluoromethyl)pyrimido[5,4-d]pyrimidin-4(3H)-one] | 75 to 110 | 100 to 1000 |
